Data reported in paper PMC7942396, “Drug Repurposing Screen for Compounds Inhibiting the Cytopathic Effect of SARS-CoV-2” (Frontiers in Pharmacology, 2021).
Counter-ions that a name gives are not always drawn. Like-named read-outs stand apart in the source and are kept apart here.

How the values were obtained:
in vitro = conditions: African green monkey
[1] = test system: SARS-CoV-2 (USA_WA1/2020); assay: microbe, parasite or virus in culture; format: cell-based
[2] = Severe acute respiratory syndrome coronavirus 2, Vero C1008, SARS-CoV-2 CPE assay, Vero E6 cells, read-out: CPE % Efficacy
[3] = Severe acute respiratory syndrome coronavirus 2, Vero C1008, SARS-CoV-2 CPE assay, Vero E6 cells, read-out: CPE EC50
[4] = Severe acute respiratory syndrome coronavirus 2, Vero C1008, SARS-CoV-2 CPE assay, Vero E6 cells, confirmed anti-SARS-CoV-2 compounds, read-out: CPE EC50
[5] = Severe acute respiratory syndrome coronavirus 2, Vero C1008, SARS-CoV-2 CPE assay, Vero E6 cells, efficacy, read-out: CPE % Efficacy
[6] = Severe acute respiratory syndrome coronavirus 2, Vero C1008, […], DMSO 0%, no-virus control 100%, hit confirmation, read-out: CPE % efficacy

## C=CC(=O)N[C@H]1CCOC[C@H]1Nc1ncc2cc(-c3c(Cl)c(OC)cc(OC)c3Cl)ccc2n1 [BLU-554]
In vitro
  cytotoxicity at 72 h: 0%
[1]; [2]
  Emax: 31.5%
[1]; [3]
  EC50: 12.6 µM

## CCCCN(CCCC)CCC(O)c1cc2c(Cl)cc(Cl)cc2c2cc(C(F)(F)F)ccc12 (stereo not shown) [Halofantrine]
In vitro
  cytotoxicity: 37.6%
[1]; [4]
  EC50: 5.62 µM
[1]; [5]
  Emax: 73.4%

## CCCCOc1cc(C(=O)NCCN(CC)CC)c2ccccc2n1 [Dibucaine]
In vitro
  cytotoxicity at 72 h: 0%
[1]; [2]
  Emax: 61.8%
[1]; [3]
  EC50: 12.6 µM

## CN1CCN(C(c2ccccc2)c2ccc(Cl)cc2)CC1 (stereo not shown) [Chlorcyclizine]
In vitro
  CC50 at 72 h: 22.4 µM
  cytotoxicity at 72 h: 18%
[1]; [2]
  Emax: 67.4%
[1]; [3]
  EC50: 12.6 µM

## NC(=O)c1cnc(N[C@@H]2CCCC[C@@H]2N)nc1Nc1cccc(-n2nccn2)c1 [PRT-062607]
In vitro
  cytotoxicity: 24.9%
[1]; [4]
  EC50: 11.2 µM
[1]; [5]
  Emax: 66.4%

## Fc1ccc(C(c2ccc(F)cc2)N2CCN(C/C=C/c3ccccc3)CC2)cc1 [Flunarizine, reference compound]
In vitro
  cytotoxicity: < 30%
[1]; [6]
  Emax: 94.1%

## C[C@@H](C(=O)Nc1ccc(Cl)cc1)C1CCC(c2ccnc3ccc(F)cc23)CC1 (stereo partly shown) [BMS-986205]
In vitro
  cytotoxicity: 37.7%
[1]; [2]
  Emax: 69.8%

## CN1CCCN(C(c2ccccc2)c2ccc(Cl)cc2)CC1 (stereo not shown) [Homochlorcyclizine]
In vitro
  CC50: 12.6 µM
  cytotoxicity: 34.2%
[1]; [4]
  EC50: 10 µM
[1]; [5]
  Emax: 84.3%

## CCCc1cc(C)[nH]c(=O)c1CNC(=O)c1cc(-c2ccnc(N3CCN(C)CC3)c2)cc2c1cnn2C(C)C [GSK-343]
In vitro
  CC50: 10 µM
  cytotoxicity: 16.6%
[1]; [2]
  Emax: 51.7%
[1]; [3]
  EC50: 14.1 µM

## CNCCCN1c2ccccc2CCc2ccccc21 [Desipramine hydrochloride]
In vitro
  CC50: 5.01 µM
  cytotoxicity: 9.2%
[1]; [4]
  EC50: 11.2 µM
[1]; [5]
  Emax: 43.7%

## CC(CN1c2ccccc2Sc2ccc(S(=O)(=O)N(C)C)cc21)N(C)C (stereo not shown) [Fonazine]
In vitro
  cytotoxicity at 72 h: 0%
[1]; [4]
  EC50: 11.2 µM
[1]; [5]
  Emax: 36.6%

## CC1=C(c2ccc(O)cc2)[C@H](c2ccc(OCCN3CCCCC3)cc2)Oc2cc(O)ccc21 [Acolbifene]
In vitro
  CC50: 12.6 µM
  cytotoxicity: 54.1%
[1]; [4]
  EC50: 5.62 µM
[1]; [5]
  Emax: 56.1%

## CC(=O)O[C@@H]1C[C@H](O)[C@@]23CO[C@@H](O)[C@]1(C)[C@@H]2C[C@@H](O)[C@]1(C)[C@@H]3C(=O)[C@H](OC(C)=O)[C@@]2(C)[C@H](c3ccoc3)C[C@H]3O[C@]321 [Toosendanin]
In vitro
  CC50: 2.66 µM
  cytotoxicity: 40.9%
[1]; [4]
  EC50: 1.19 µM
[1]; [5]
  Emax: 88.9%

## CNCCC=C1c2ccccc2CCc2ccccc21 [Pamelor]
In vitro
  cytotoxicity: 0%
[1]; Severe acute respiratory syndrome coronavirus 2, Vero C1008, read-out: CPE % Efficacy
  Emax: 103%
[1]; Severe acute respiratory syndrome coronavirus 2, Vero C1008, read-out: CPE EC50 (uM)
  EC50: 12.6 µM

## CN(C)CC/C=C1\c2ccccc2CSc2ccccc21 [Dosulepin hydrochloride]
In vitro
  CC50: 12.6 µM
  cytotoxicity: 17.2%
[1]; [2]
  Emax: 30.8%
[1]; [3]
  EC50: 14.1 µM

## Cc1ccc(-c2cc(C(F)(F)F)nn2-c2ccc(S(N)(=O)=O)cc2)cc1 [Celecoxib]
In vitro
  CC50: 15.8 µM
  cytotoxicity: 9%
[1]; [4]
  EC50: 11.2 µM
[1]; [5]
  Emax: 79.2%

## COC(=O)[C@H]1[C@H]2C[C@@H]3c4[nH]c5cc(OC)ccc5c4CCN3C[C@H]2C[C@@H](OC(=O)/C=C/c2ccc(O)c(OC)c2)[C@@H]1OC [Rescimetol, reference compound]
In vitro
  cytotoxicity at 72 h: < 30%
[1]; Severe acute respiratory syndrome coronavirus 2, Vero C1008, 72 h, read-out: CPE EC50
  EC50: 8.9 µM
[1]; [6]
  Emax: 81.8%

## c1ccc(-c2cc(CCC3CCNCC3)c3ccccc3n2)cc1 [Pipequaline]
In vitro
  CC50 at 72 h: 12.6 µM
  cytotoxicity at 72 h: 108%
[1]; [4]
  EC50: 10 µM
[1]; [5]
  Emax: 33.3%

## Cc1c(O)cccc1C(=O)N[C@@H](CSc1ccccc1)[C@H](O)CN1C[C@H]2CCCC[C@H]2C[C@H]1C(=O)NC(C)(C)C [Nelfinavir Mesylate]
In vitro
  CC50: 12.6 µM
  cytotoxicity: 96.9%
[1]; [4]
  EC50: 3.55 µM
[1]; [5]
  Emax: 106%

## CCOC(=O)C1=C(COCCN)NC(C)=C(C(=O)OC)C1c1ccccc1Cl (stereo not shown) [Amlodipine]
In vitro
  cytotoxicity: 0%
[1]; [2]
  Emax: 99.8%
[1]; [3]
  EC50: 12.6 µM

## CN1[C@@H]2CC[C@H]1C[C@@H](OC(c1ccccc1)c1ccccc1)C2 [Benztropine mesylate]
In vitro
  cytotoxicity: 0%
[1]; [2]
  Emax: 59%
